Data reported in BigSolDB 2.1.

## CCCCCCCCCCCCCCCCCCCCCCCCCCCCO
In n-hexanol, 298.2 K
  solubility (mole fraction): 0.000906
In n-hexanol, 303.2 K
  solubility (mole fraction): 0.00126
In n-hexanol, 308.2 K
  solubility (mole fraction): 0.00238
In n-hexanol, 313.2 K
  solubility (mole fraction): 0.00436
In n-hexanol, 318.2 K
  solubility (mole fraction): 0.00758
In n-hexanol, 323.2 K
  solubility (mole fraction): 0.0148
In n-hexanol, 328.2 K
  solubility (mole fraction): 0.0291
In n-hexanol, 333.2 K
  solubility (mole fraction): 0.0602
In n-pentanol, 298.2 K
  solubility (mole fraction): 0.000644
In n-pentanol, 303.2 K
  solubility (mole fraction): 0.00115
In n-pentanol, 308.2 K
  solubility (mole fraction): 0.00222
In n-pentanol, 313.2 K
  solubility (mole fraction): 0.00375
In n-pentanol, 318.2 K
  solubility (mole fraction): 0.00658
In n-pentanol, 323.2 K
  solubility (mole fraction): 0.013
In n-pentanol, 328.2 K
  solubility (mole fraction): 0.026
In toluene, 298.2 K
  solubility (mole fraction): 0.0014
In toluene, 303.2 K
  solubility (mole fraction): 0.00246
In toluene, 308.2 K
  solubility (mole fraction): 0.00402
In toluene, 313.2 K
  solubility (mole fraction): 0.00744
In toluene, 318.2 K
  solubility (mole fraction): 0.0137
In toluene, 323.2 K
  solubility (mole fraction): 0.0291
In toluene, 328.2 K
  solubility (mole fraction): 0.0588
